# Key:
# Assay type in all cases: in vivo
# [1] = test system: ALOMY (Alopecurus myosuroides); experiment: post-emergence greenhouse test; details: 3.75 g ai/ha
# Text: (§1) For the post-emergence treatment, the test plants were first grown to a height of 3 to 20 cm, depending on the plant habit, and only then treated. Here, the herbicidal compositions were suspended or emulsified in water as distribution medium and sprayed using finely distributing nozzles.
# (§2) The respective herbicides A and/or safener were formulated as 10% by weight strength suspension concentrate and introduced to the spray liquor with the amount of solvent system used for applying the active compound. Herbicide B and/or safener were used as commercially available formulations and introduced to the spray liquor with the amount of solvent system used for applying the active compound. In the examples, the solvent used was water.
# (§3) The test period extended over 20 days. During this time, the plants were tended, and their response to the treatments with active compound was evaluated.
# (§4) In the following experiments, the herbicidal activity for the individual herbicide compounds (solo application) and of the mixture was assessed 8 days after treatment (8 DAT) and/or 20 days after treatment (20 DAT).
# (§5) The evaluation for the damage caused by the chemical compositions was carried out using a scale from 0 to 100%, compared to the untreated control plants. Here, 0 means no damage and 100 means complete destruction of the plants.
# [2] = test system: CHEAL (Chenopodium album); experiment: post-emergence greenhouse test; details: 15 g ai/ha
# Text: as §1, §2, §3, §4, §5
# [3] = test system: MERAN (Mercurialis annua); experiment: post-emergence greenhouse test; details: 7.5 g ai/ha
# Text: as §1, §2, §3, §4, §5
# [4] = test system: LOLMU (Lolium multiflorum); experiment: pre-emergence greenhouse test; details: for observed activity in % destruction: pre-emergence
# Text: (§6) For the pre-emergence treatment, directly after sowing the active compounds, which had been suspended or emulsified in water, were applied by means of finely distributed nozzles. The containers were irrigated gently to promote germination and growth and subsequently covered with transparent plastic hoods until plant had rooted. This cover caused uniform germination of the tests plants, unless this was adversely affected by active compounds.
# as §2, §3, §4, §5
# [5] = test system: ABUTH (Abutilon theophrasti); experiment: pre-emergence greenhouse test; details: pre-emergence, 7.5 g ai/ha
# Text: as §6, §2, §3, §4, §5
# [6] = test system: ECHCG (Echinochloa crus-galli); experiment: pre-emergence greenhouse test; details: for observed activity in % destruction: pre-emergence
# Text: as §6, §2, §3, §4, §5
# [7] = test system: PHBPU (Ipomoea purpurea); experiment: pre-emergence greenhouse test; details: for observed activity in % destruction: pre-emergence, 3.75 g ai/ha
# Text: as §6, §2, §3, §4, §5
# [8] = test system: AMARE (Amaranthus retroflexus); experiment: pre-emergence greenhouse test; details: pre-emergence
# Text: as §6, §2, §3, §4, §5
# [9] = test system: SETVI (Setaria viridis); experiment: pre-emergence greenhouse test
# Text: as §6, §2, §3, §4, §5
# [10] = test system: ALOMY (Alopecurus myosuroides); experiment: pre-emergence greenhouse test; details: for observed activity in % destruction: pre-emergence, 15 g ai/ha
# Text: as §6, §2, §3, §4, §5
# [11] = test system: COMBE (Commelina benghalensis); experiment: pre-emergence greenhouse test; details: for observed activity in % destruction: pre-emergence
# Text: as §6, §2, §3, §4, §5
# [12] = test system: PANDI (Panicum dichotomiflorum); experiment: pre-emergence greenhouse test; details: pre-emergence
# Text: as §6, §2, §3, §4, §5
# [13] = test system: SOLNI (Solanum nigrum); experiment: pre-emergence greenhouse test; details: for observed activity in % destruction: pre-emergence
# Text: as §6, §2, §3, §4, §5
# [14] = test system: BRAPL (Brachiaria plantaginea); experiment: pre-emergence greenhouse test; details: for observed activity in % destruction: pre-emergence, 15 g ai/ha
# Text: as §6, §2, §3, §4, §5
# [15] = test system: ERBVI; experiment: pre-emergence greenhouse test; details: ERBVI pre-emergence 15 g ai/ha
# Text: as §6, §2, §3, §4, §5
smiles,measurement,setting,value
Cc1cnc(C2=NC(=O)C(C)(C(C)C)N2)c(C(=O)O)c1 (stereo not drawn) [imazapic],observed activity in % destruction,[1]; 8 DAT,35%
same,observed activity in % destruction,[1]; 20 DAT,30%
same,observed activity in % destruction,[2]; 8 DAT,20%
same,observed activity in % destruction,[2]; 20 DAT,30%
same,observed activity in % destruction,[3]; 8 DAT,20%
same,observed activity in % destruction,[3]; 20 DAT,0%
same,observed % destruction 20 DAT,[4]; LOLMU pre-emergence 3.75 g ai/ha,40%
same,observed % destruction 20 DAT,[4]; LOLMU pre-emergence 7.5 g ai/ha,45%
same,observed % destruction 20 DAT,[4]; LOLMU pre-emergence 15 g ai/ha,65%
same,observed activity in % destruction,"[4]; 3.75 g ai/ha, 8 DAT",0%
same,observed activity in % destruction,"[4]; 3.75 g ai/ha, 20 DAT",40%
same,observed activity in % destruction,"[4]; 7.5 g ai/ha, 8 DAT",0%
same,observed activity in % destruction,"[4]; 7.5 g ai/ha, 20 DAT",45%
same,observed activity in % destruction,"[4]; 15 g ai/ha, 8 DAT",30%
same,observed activity in % destruction,"[4]; 15 g ai/ha, 20 DAT",65%
same,observed activity in % destruction,[5]; 8 DAT,20%
same,observed activity in % destruction,[5]; 20 DAT,75%
same,observed % destruction 20 DAT,[6]; ECHCG pre-emergence 7.5 g ai/ha,60%
same,observed % destruction 20 DAT,[6]; ECHCG pre-emergence 15 g ai/ha,90%
same,observed activity in % destruction,"[6]; 7.5 g ai/ha, 8 DAT",30%
same,observed activity in % destruction,"[6]; 7.5 g ai/ha, 20 DAT",60%
same,observed activity in % destruction,"[6]; 15 g ai/ha, 8 DAT",65%
same,observed activity in % destruction,"[6]; 15 g ai/ha, 20 DAT",90%
same,observed % destruction 20 DAT,[7]; PHBPU pre-emergence 3.75 g ai/ha,25%
same,observed activity in % destruction,[7]; 8 DAT,30%
same,observed activity in % destruction,[7]; 20 DAT,25%
same,observed activity in % destruction,"[8]; 3.75 g ai/ha, 8 DAT",30%
same,observed activity in % destruction,"[8]; 3.75 g ai/ha, 20 DAT",55%
same,observed activity in % destruction,"[8]; 7.5 g ai/ha, 8 DAT",50%
same,observed activity in % destruction,"[8]; 7.5 g ai/ha, 20 DAT",75%
same,observed activity in % destruction,"[8]; 15 g ai/ha, 8 DAT",50%
same,observed activity in % destruction,"[8]; 15 g ai/ha, 20 DAT",90%
same,observed % destruction 20 DAT,[9]; SETVI pre-emergence 3.75 g ai/ha,75%
same,observed % destruction 20 DAT,[9]; SETVI pre-emergence 7.5 g ai/ha,90%
same,observed % destruction 20 DAT,[9]; SETVI pre-emergence 15 g ai/ha,95%
same,observed % destruction 20 DAT,[10]; ALOMY pre-emergence 15 g ai/ha,80%
same,observed activity in % destruction,[10]; 8 DAT,40%
same,observed activity in % destruction,[10]; 20 DAT,80%
same,observed % destruction 20 DAT,[11]; COMBE pre-emergence 3.75 g ai/ha,30%
same,observed % destruction 20 DAT,[11]; COMBE pre-emergence 7.5 g ai/ha,40%
same,observed activity in % destruction,"[11]; 3.75 g ai/ha, 8 DAT",0%
same,observed activity in % destruction,"[11]; 3.75 g ai/ha, 20 DAT",30%
same,observed activity in % destruction,"[11]; 7.5 g ai/ha, 8 DAT",20%
same,observed activity in % destruction,"[11]; 7.5 g ai/ha, 20 DAT",40%
same,observed activity in % destruction,"[12]; 3.75 g ai/ha, 8 DAT",0%
same,observed activity in % destruction,"[12]; 3.75 g ai/ha, 20 DAT",80%
same,observed activity in % destruction,"[12]; 7.5 g ai/ha, 8 DAT",30%
same,observed activity in % destruction,"[12]; 7.5 g ai/ha, 20 DAT",90%
same,observed activity in % destruction,"[12]; 15 g ai/ha, 8 DAT",50%
same,observed activity in % destruction,"[12]; 15 g ai/ha, 20 DAT",95%
same,observed % destruction 20 DAT,[13]; SOLNI pre-emergence 3.75 g ai/ha,70%
same,observed % destruction 20 DAT,[13]; SOLNI pre-emergence 7.5 g ai/ha,85%
same,observed % destruction 20 DAT,[13]; SOLNI pre-emergence 15 g ai/ha,90%
same,observed activity in % destruction,"[13]; 3.75 g ai/ha, 8 DAT",20%
same,observed activity in % destruction,"[13]; 3.75 g ai/ha, 20 DAT",70%
same,observed activity in % destruction,"[13]; 7.5 g ai/ha, 8 DAT",40%
same,observed activity in % destruction,"[13]; 7.5 g ai/ha, 20 DAT",85%
same,observed activity in % destruction,"[13]; 15 g ai/ha, 8 DAT",50%
same,observed activity in % destruction,"[13]; 15 g ai/ha, 20 DAT",90%
same,observed % destruction 20 DAT,[14]; BRAPL pre-emergence 15 g ai/ha,85%
same,observed activity in % destruction,[14]; 8 DAT,30%
same,observed activity in % destruction,[14]; 20 DAT,85%
same,observed % destruction 20 DAT,[15],65%

# From patent publication US20110015067A1, “Herbicidal Compositions Comprising Pyroxasulfone” (BASF SE, priority 2008, published 2011)
